Experiments:
Ras farnesyl transferase [1] = target: T1, Ras farnesyl transferase (Rattus norvegicus, UniProt Q02293+Q04631); experiment: in vivo (cellular) Ras farnesyl transferase inhibitory activity, Rat2 cells expressing C-Harvey-Ras; assay type: cell-based; settings: Rat2 cell line expressing C-Harvey-Ras; concentration inhibiting 50% of farnesyl binding of Ras protein; read-out: H-Ras CIC50
T1 construct: endogenous in cells; host or cells: Rat2 fibroblasts transformed with C-Harvey-Ras, or with H-Ras carrying the K-Ras C-terminal polybasic lysine domain
Method in brief: (§1)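 Transformed Rat2 cells treated with compound in 1% DMSO, labelled with [35S]methionine from 4 h onward for a further 20 h. Ras immunoprecipitated with Y13-259 and resolved by SDS-PAGE and autoradiography. CIC50 is the concentration inhibiting 50% of Ras farnesylation, from farnesylated versus unfarnesylated band intensities.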

Ras farnesyl transferase [2] = target: T2, Ras farnesyl transferase (Homo sapiens, UniProt P49354+P49356); experiment: in vitro inhibitory activity for Ras farnesyl transferase, K-Ras substrate; assay type: biochemical; settings: recombinant Ras farnesyl transferase, K-Ras substrate; read-out: K-Ras IC50
T2 construct: made in house

Ras farnesyl transferase [3] = target: T2, Ras farnesyl transferase; experiment: in vitro inhibitory activity for Ras farnesyl transferase, H-Ras substrate; assay type: biochemical; settings: recombinant Ras farnesyl transferase, H-Ras substrate, tritium-farnesylpyrophosphate, 30 minutes at 37° C.; read-out: H-Ras IC50
Ras farnesyl transferase [4] = target: T1, Ras farnesyl transferase; experiment: in vivo (cellular) Ras farnesyl transferase inhibitory activity, Rat2 cells transformed with H-Ras fused with polybasic lysine domain of K-Ras; assay type: cell-based; settings: Rat2 cell line transformed with H-Ras substituted with polybasic lysine domain at C-terminus of K-Ras; concentration inhibiting 50% of farnesyl binding; read-out: K-Ras CIC50
Method in brief: as §1

IC50 (Ras farnesyl transferase [1]) | IC50 (Ras farnesyl transferase [2]) | IC50 (Ras farnesyl transferase [3]) | IC50 (Ras farnesyl transferase [4]) | Structure (SMILES)
50 nM | 10 nM | 2.3 nM | 10000 to 50000 nM | CN1CCN(C(=O)c2cn(Cc3cncn3CC3CCN(C(=O)N(C)Cc4ccccc4)CC3)cc2-c2cccc3ccccc23)CC1 [Compound 52]
50 nM | 8.5 nM | 3 nM | 10000 to 50000 nM | CN1CCN(C(=O)c2cn(Cc3cncn3CC3CCN(C(=O)N(C)C)CC3)cc2-c2cccc3ccccc23)CC1 [Compound 53, 1-{1-[1-(N,N-Dimethylcarbamoyl)piperidin-4-yl]methyl-1H-imidazol-5-yl}methyl-3-(4-methylpiperazin-1-yl)carbonyl-4-(naphthalen-1-yl)-1H-pyrrole]
25 nM | 40 nM | 11 nM | 10000 to 50000 nM | CN1CCN(C(=O)c2cn(Cc3cncn3CC3CCN(C(=O)N4CCCc5ccccc54)CC3)cc2-c2cccc3ccccc23)CC1 [Compound 54, 3-(4-Methylpiperazin-1-yl)carbonyl-4-(naphthalen-1-yl)-1-{1-[1-(1,2,3,4-tetrahydroquinolin-1-ylcarbonyl)piperidin-4-yl]methyl-1H-imidazol-5-yl}methyl-1H-pyrrole]
25 nM | 40 nM | 2 nM | 10000 to 50000 nM | CN1CCN(C(=O)c2cn(Cc3cncn3CC3CCN(C(=O)N4CCc5ccccc5C4)CC3)cc2-c2cccc3ccccc23)CC1 [Compound 55, 3-(4-Methylpiperazin-1-yl)carbonyl-4-(naphthalen-1-yl)-1-{1-[1-(1,2,3,4-tetrahydroisoquinolin-2-ylcarbonyl)piperidin-4-yl]methyl-1H-imidazol-5-yl}methyl-1H-pyrrole]
50 nM | 20 nM | 5 nM | 5000 nM | CN1CCN(C(=O)c2cn(Cc3cncn3CC3CCN(Cc4ccc(-c5ccccc5)cc4)CC3)cc2-c2cccc3ccccc23)CC1 [Compound 56, 1-{1-[1-(4-Biphenylmethyl)piperidin-4-yl]methyl-1H-imidazol-5-yl}methyl-3-(4-methylpiperazin-1-yl)carbonyl-4-(naphthalen-1-yl)-1H-pyrrole]
25 nM | 10 nM | 11 nM | 10000 nM | CN1CCN(C(=O)c2cn(Cc3cncn3CC3CCN(Cc4ccc(Oc5ccccc5)cc4)CC3)cc2-c2cccc3ccccc23)CC1 [Compound 57, 3-(4-Methylpiperazin-1-yl)carbonyl-4-(naphthalen-1-yl)-1-{1-[1-(4-phenoxybenzyl)piperidin-4-yl]methyl-1H-imidazol-5-yl}methyl-1H-pyrrole]

Reference: patent publication US6436960B1, “Farnesyl transferase inhibitors having a piperidine structure and process for preparation thereof” (LG Chemical Ltd., priority 1998, dated 2002)
